Reference: the NIST ThermoML archive (doi:10.1021/je300632p)

Experiment: xn = mol fraction of the nth substance listed
Conditions: 101 kPa, Liquid; for viscosity: Falling or rolling sphere viscometry; for mass density: Vibrating tube method

CCCO [propan-1-ol] + CCO
Conditions	mass density [kg/m3]	viscosity [mPa·s]
293.15 K, x2 = 0	803.58	2.195
293.15 K, x2 = 0.1	802.08	2.034
293.15 K, x2 = 0.2	800.86	1.92
293.15 K, x2 = 0.301	799.68	1.825
293.15 K, x2 = 0.4	798.4	1.684
293.15 K, x2 = 0.5	797.31	1.586
293.15 K, x2 = 0.599	795.87	1.505
293.15 K, x2 = 0.701	794.36	1.408
293.15 K, x2 = 0.8	792.88	1.324
293.15 K, x2 = 0.9	791.44	1.242
298.15 K, x2 = 0	799.59	1.902
298.15 K, x2 = 0.1	798.08	1.81
298.15 K, x2 = 0.2	796.82	1.713
298.15 K, x2 = 0.301	795.65	1.632
298.15 K, x2 = 0.4	794.33	1.511
298.15 K, x2 = 0.5	793.22	1.425
298.15 K, x2 = 0.599	791.75	1.355
298.15 K, x2 = 0.701	790.21	1.272
298.15 K, x2 = 0.8	788.69	1.198
298.15 K, x2 = 0.9	787.22	1.127
303.15 K, x2 = 0	795.58	1.694
303.15 K, x2 = 0.1	794.05	1.615
303.15 K, x2 = 0.2	792.77	1.533
303.15 K, x2 = 0.301	791.57	1.464
303.15 K, x2 = 0.4	790.22	1.359
303.15 K, x2 = 0.5	789.08	1.284
303.15 K, x2 = 0.599	787.59	1.225
303.15 K, x2 = 0.701	786.02	1.152
303.15 K, x2 = 0.8	784.47	1.088
303.15 K, x2 = 0.9	782.96	1.024
308.15 K, x2 = 0	791.53	1.511
308.15 K, x2 = 0.1	789.98	1.446
308.15 K, x2 = 0.2	788.8	1.376
308.15 K, x2 = 0.301	787.45	1.317
308.15 K, x2 = 0.4	786.08	1.225
308.15 K, x2 = 0.5	784.92	1.16
308.15 K, x2 = 0.599	783.4	1.11
308.15 K, x2 = 0.701	781.8	1.046
308.15 K, x2 = 0.8	780.21	0.989
308.15 K, x2 = 0.9	778.67	0.933
313.15 K, x2 = 0	787.44	1.352
313.15 K, x2 = 0.1	785.86	1.297
313.15 K, x2 = 0.2	784.66	1.239
313.15 K, x2 = 0.301	783.29	1.188
313.15 K, x2 = 0.4	781.9	1.107
313.15 K, x2 = 0.5	780.71	1.051
313.15 K, x2 = 0.599	779.16	1.007
313.15 K, x2 = 0.701	777.53	0.952
313.15 K, x2 = 0.8	775.91	0.901
313.15 K, x2 = 0.9	774.33	0.852
318.15 K, x2 = 0	783.3	1.214
318.15 K, x2 = 0.1	781.7	1.167
318.15 K, x2 = 0.2	780.48	1.118
318.15 K, x2 = 0.301	779.09	1.074
318.15 K, x2 = 0.4	777.68	1.003
318.15 K, x2 = 0.5	776.45	0.954
318.15 K, x2 = 0.599	774.88	0.916
318.15 K, x2 = 0.701	773.22	0.867
318.15 K, x2 = 0.8	771.56	0.823
318.15 K, x2 = 0.9	769.95	0.78
323.15 K, x2 = 0	779.11	1.093
323.15 K, x2 = 0.1	777.49	1.053
323.15 K, x2 = 0.2	776.24	1.012
323.15 K, x2 = 0.301	774.83	0.973
323.15 K, x2 = 0.4	773.39	0.911
323.15 K, x2 = 0.5	772.14	0.867
323.15 K, x2 = 0.599	770.54	0.835
323.15 K, x2 = 0.701	768.85	0.792
323.15 K, x2 = 0.8	767.16	0.753
323.15 K, x2 = 0.9	765.52	0.715
328.15 K, x2 = 0	774.86	0.986
328.15 K, x2 = 0.1	773.22	0.953
328.15 K, x2 = 0.2	771.95	0.919
328.15 K, x2 = 0.301	770.52	0.884
328.15 K, x2 = 0.4	769.06	0.829
328.15 K, x2 = 0.5	767.78	0.79
328.15 K, x2 = 0.599	766.15	0.763
328.15 K, x2 = 0.701	764.43	0.725
328.15 K, x2 = 0.8	762.71	0.69
328.15 K, x2 = 0.9	761.02	0.657
